Measurements: article PMC10796410 (Cancer Chemotherapy and Pharmacology, 2023)
Several values for one entry are separate records, joined by “and”; a condition that tells them apart may be missing. Equal entries are not always repeated. Where two headings read alike, the source gives them in different places.

Assays:
[1] = Plasma pharmacokinetics of olaparib in rats after a single oral dose, alone or with metformin (UPLC-MS/MS, non-compartmental); format: in vivo, Wistar rats; details: for concentration at 0.083 h / concentration at 0.167 h / concentration at 0.333 h / concentration at 0.5 h / concentration at 0.75 h / concentration at 1 h / concentration at 2 h / concentration at 3 h / concentration at 4 h / concentration at 6 h / concentration at 8 h / concentration at 10 h / concentration at 12 h / concentration at 24 h / AUC(0-inf) / AUC(0-t) / Cmax / Tmax / Vd/F / k el: male, Wistar, rat, plasma; for concentration at 0.083 h / concentration at 0.167 h / concentration at 0.333 h / concentration at 0.5 h / concentration at 0.75 h / concentration at 1 h / concentration at 2 h / concentration at 3 h / concentration at 4 h / concentration at 6 h / concentration at 8 h / concentration at 10 h / concentration at 12 h / concentration at 24 h: oral, group mean, read-out: Cave_ola; for AUC(0-inf) / AUC(0-t) / Cmax / Tmax / Vd/F / k el: po; for AUC(0-inf) / AUC(0-t) / Cmax / Tmax / Vd/F / k el / Cl/F / t0.5: rat plasma, n = 8, mean ± SD
From the text: All applicable international, national, and/or institutional guidelines for the care and use of animals were followed. The animals were given a standard diet and water ad libitum, and the experimental protocol for this study was approved by the Local Ethics Committee (No. 45/2022, of 27 May 2022), Poznań University of Life Sciences, Department of Animal Physiology and Biochemistry, Wołyńska 35, 60–637 Poznań, Poland. Adult male Wistar rats (weight 380–530 g) were used in the study. The animals were maintained under standard breeding conditions with a 12/12 h light–dark cycle (lights on at 06.00, lights off at 18.00) at constant room temperature (23 ± 2 °C), relative humidity of 55 ± 10% and given ad libitum access to food and water. The animals were allowed to acclimatize for a week before the beginning of the experiments. The rats were divided into three groups. […] The solution for oral metformin administration was prepared in saline at a single dose of 100 mg/kg. Drugs were orally administered to rats by gavage between 7:00 a.m. and 8:00 a.m. […] The blood samples were centrifuged at 5000 rpm for 10 min, and the plasma was transferred to new centrifuge tubes and then stored at – 80 °C.
A Cortecs UPLC C18 column (2.1 × 50 mm, 1.6 µm, Waters Corporation, Milford, MA, USA) was used for chromatographic separation. The column temperature and injection volume were set at 40 °C and 1 µl, respectively. The mobile phase comprised acetonitrile (eluent A) and 2 mM ammonium acetate in water (eluent B) with 0.1% 98–100% formic acid. The flow rate was maintained at 0.3 ml/min. The gradient elution was as follows: 0–3 min, 5% A; […]; 3–5 min, linear from 5 to 95% A; 5–6 min, linear from 95 to 5% A. The mass spectrometer operated in the multiple reaction monitoring mode.
The maximum plasma concentration (Cmax) and the time to reach the Cmax (tmax) were obtained directly from the measured values. All of the above-mentioned parameters underwent statistical analysis.

[2] = test system: epithelial ovarian cancer cell lines; details: drugs given separately or co-administered; cited from earlier work
[3] = test system: BCRP; design: method as in earlier work; details: in vitro studies; cited from earlier work
[4] = test system: OATP1B1; design: method as in earlier work; details: in vitro studies; cited from earlier work
[5] = test system: OCT1; design: method as in earlier work; details: in vitro studies; cited from earlier work
[6] = test system: OCT2; design: method as in earlier work; details: in vitro studies; cited from earlier work
[7] = test system: OAT3; design: method as in earlier work; details: in vitro studies; cited from earlier work
[8] = test system: MATE1; design: method as in earlier work; details: in vitro studies; cited from earlier work
[9] = test system: MATE2K; design: method as in earlier work; details: in vitro studies; cited from earlier work
[10] = 100 mg/kg, IIIOLA: olaparib 100 mg/kg b.w. oral single dose alone
[11] = 100 mg/kg, IMET+OLA: metformin 100 mg/kg b.w. + olaparib 100 mg/kg b.w. oral single dose
[12] = IIIOLA: olaparib 100 mg/kg b.w. oral single dose alone
[13] = IMET+OLA: metformin 100 mg/kg b.w. + olaparib 100 mg/kg b.w. oral single dose

Compound: O=C(c1cc(Cc2n[nH]c(=O)c3ccccc23)ccc1F)N1CCN(C(=O)C2CC2)CC1 [olaparib, Olaparib]
- concentration at 0.083 h ([1]; 100 mg/kg, t 0.083 h, IIIOLA (olaparib alone)): 1080 ng/mL
- concentration at 0.167 h ([1]; 100 mg/kg, t 0.167 h, IIIOLA (olaparib alone)): 2220 ng/mL
- concentration at 0.333 h ([1]; 100 mg/kg, t 0.333 h, IIIOLA (olaparib alone)): 3790 ng/mL
- concentration at 0.5 h ([1]; 100 mg/kg, t 0.500 h, IIIOLA (olaparib alone)): 4590 ng/mL
- concentration at 0.75 h ([1]; 100 mg/kg, t 0.750 h, IIIOLA (olaparib alone)): 4440 ng/mL
- concentration at 1 h ([1]; 100 mg/kg, t 1 h, IIIOLA (olaparib alone)): 7110 ng/mL
- concentration at 2 h ([1]; 100 mg/kg, t 2 h, IIIOLA (olaparib alone)): 6050 ng/mL
- concentration at 3 h ([1]; 100 mg/kg, t 3 h, IIIOLA (olaparib alone)): 4140 ng/mL
- concentration at 4 h ([1]; 100 mg/kg, t 4 h, IIIOLA (olaparib alone)): 528 ng/mL
- concentration at 6 h ([1]; 100 mg/kg, t 6 h, IIIOLA (olaparib alone)): 1460 ng/mL
- concentration at 8 h ([1]; 100 mg/kg, t 8 h, IIIOLA (olaparib alone)): 851 ng/mL
- concentration at 10 h ([1]; 100 mg/kg, t 10 h, IIIOLA (olaparib alone)): 480 ng/mL
- concentration at 12 h ([1]; 100 mg/kg, t 12 h, IIIOLA (olaparib alone)): 196 ng/mL
- concentration at 24 h ([1]; 100 mg/kg, t 24 h, IIIOLA (olaparib alone)): 27.2 ng/mL
- concentration at 0.083 h ([1]; t 0.083 h, IMET+OLA (metformin and olaparib)): 1530 ng/mL
- concentration at 0.167 h ([1]; t 0.167 h, IMET+OLA (metformin and olaparib)): 4270 ng/mL
- concentration at 0.333 h ([1]; t 0.333 h, IMET+OLA (metformin and olaparib)): 7190 ng/mL
- concentration at 0.5 h ([1]; t 0.500 h, IMET+OLA (metformin and olaparib)): 7240 ng/mL
- concentration at 0.75 h ([1]; t 0.750 h, IMET+OLA (metformin and olaparib)): 7770 ng/mL
- concentration at 1 h ([1]; t 1 h, IMET+OLA (metformin and olaparib)): 7120 ng/mL
- concentration at 2 h ([1]; t 2 h, IMET+OLA (metformin and olaparib)): 6220 ng/mL
- concentration at 3 h ([1]; t 3 h, IMET+OLA (metformin and olaparib)): 4080 ng/mL
- concentration at 4 h ([1]; t 4 h, IMET+OLA (metformin and olaparib)): 3200 ng/mL
- concentration at 6 h ([1]; t 6 h, IMET+OLA (metformin and olaparib)): 1190 ng/mL
- concentration at 8 h ([1]; t 8 h, IMET+OLA (metformin and olaparib)): 490 ng/mL
- concentration at 10 h ([1]; t 10 h, IMET+OLA (metformin and olaparib)): 155 ng/mL
- concentration at 12 h ([1]; t 12 h, IMET+OLA (metformin and olaparib)): 94.4 ng/mL
- concentration at 24 h ([1]; t 24 h, IMET+OLA (metformin and olaparib)): 74.8 ng/mL
- AUC(0-inf) [1, 10]: 28600 ng·h/mL
- AUC(0-t) [1, 10]: 28300 ng·h/mL
- Cmax [1, 10]: 8720 ± 6800 ng/mL
- Tmax [1, 10]: 1.18 ± 0.91 h
- Vd/F [1, 10]: 22.5 ± 24.8 L
- k el [1, 10]: 0.000122 s⁻¹
- AUC(0-inf) [1, 11]: 29000 ng·h/mL
- AUC(0-t) [1, 11]: 28300 ng·h/mL
- Cmax [1, 11]: 9420 ± 6330 ng/mL
- Tmax [1, 11]: 1.11 ± 0.75 h
- Vd/F [1, 11]: 12.5 ± 11.6 L
- k el [1, 11]: 9.44e-05 s⁻¹
- Cl/F [1, 12]: 7.84 ± 15.21 l/h and 7.84 ± 15.21 (193.9) l/h
- t0.5 [1, 12]: 4.79 ± 6.06 (126.5) h
- Cl/F [1, 13]: 2.62 ± 2.07 l/h and 2.62 ± 2.07 (79.0) l/h
- t0.5 [1, 13]: 3.18 ± 2.28 (71.7) h
- C_ola ([1]; t 0.083 h, IMET+OLA (metformin and olaparib), individual rats 9-16): 399.8 ng/mL and 205.5 ng/mL and 1282.8 ng/mL and 2905.9 ng/mL and 1816.4 ng/mL and 1671.7 ng/mL and 346.2 ng/mL and 3579.7 ng/mL
- C_ola ([1]; t 0.167 h, IMET+OLA (metformin and olaparib), individual rats 9-16): 735.8 ng/mL and 409.9 ng/mL and 5081.5 ng/mL and 9225.7 ng/mL and 5056.5 ng/mL and 3857.8 ng/mL and 1362.6 ng/mL and 8409.9 ng/mL
- C_ola ([1]; t 0.333 h, IMET+OLA (metformin and olaparib), individual rats 9-16): 1895.1 ng/mL and 1378.1 ng/mL and 6639.2 ng/mL and 14659.7 ng/mL and 8931.6 ng/mL and 11236.6 ng/mL and 1385.6 ng/mL and 11426.1 ng/mL
- C_ola ([1]; t 0.500 h, IIIOLA (olaparib alone), individual rats 1-8): 3742.4 ng/mL and 535.2 ng/mL and 12507.8 ng/mL and 7237.7 ng/mL and 6302.7 ng/mL and 1652.9 ng/mL and 418.2 ng/mL and 8077.9 ng/mL
- C_ola ([1]; t 0.500 h, IMET+OLA (metformin and olaparib), individual rats 9-16): 3714.2 ng/mL and 1709.6 ng/mL and 7002.5 ng/mL and 13973.1 ng/mL and 6376.6 ng/mL and 773.6 ng/mL and 17095.7 ng/mL
- C_ola ([1]; t 0.750 h, IIIOLA (olaparib alone), individual rats 1-8): 3804.2 ng/mL and 2586.8 ng/mL and 15300.4 ng/mL and 11009.1 ng/mL and 7991.7 ng/mL and 1511.2 ng/mL and 355.6 ng/mL and 8277 ng/mL
- C_ola ([1]; t 0.750 h, IMET+OLA (metformin and olaparib), individual rats 9-16): 3217.4 ng/mL
- C_ola ([1]; t 1 h, IIIOLA (olaparib alone), individual rats 1-8): 6130.9 ng/mL and 3469.6 ng/mL and 13706 ng/mL and 16348.7 ng/mL and 9042.2 ng/mL and 1418.9 ng/mL and 698.2 ng/mL and 6102.6 ng/mL
- C_ola ([1]; t 2 h, IIIOLA (olaparib alone), individual rats 1-8): 8834.3 ng/mL and 2628.7 ng/mL and 19817.4 ng/mL and 10845 ng/mL and 3432.4 ng/mL and 1456.7 ng/mL and 45.1 ng/mL and 1370.2 ng/mL
- C_ola ([1]; t 3 h, IIIOLA (olaparib alone), individual rats 1-8): 10275 ng/mL and 2662.1 ng/mL and 12843.4 ng/mL and 4820.1 ng/mL and 969 ng/mL and 1168.9 ng/mL and 6.7 ng/mL and 409.4 ng/mL
- C_ola ([1]; t 4 h, IIIOLA (olaparib alone), individual rats 1-8): 437.9 ng/mL and 948.8 ng/mL and 197 ng/mL
- C_ola ([1]; t 6 h, IIIOLA (olaparib alone), individual rats 1-8): 5403.6 ng/mL and 829.1 ng/mL and 4359.8 ng/mL and 822.4 ng/mL and 31.7 ng/mL and 206.3 ng/mL and 4.8 ng/mL and 35.7 ng/mL
- C_ola ([1]; t 8 h, IIIOLA (olaparib alone), individual rats 1-8): 2408.4 ng/mL and 295.6 ng/mL and 2024.1 ng/mL and 243.9 ng/mL and 17.4 ng/mL and 116.3 ng/mL
- C_ola ([1]; t 10 h, IIIOLA (olaparib alone), individual rats 1-8): 701.7 ng/mL and 75.4 ng/mL and 1071 ng/mL and 70.2 ng/mL
- C_ola ([1]; t 12 h, IIIOLA (olaparib alone), individual rats 1-8): 362.3 ng/mL and 53.7 ng/mL and 337 ng/mL and 32.3 ng/mL
- C_ola ([1]; t 24 h, IIIOLA (olaparib alone), individual rats 1-8): 34.8 ng/mL and 36.4 ng/mL and 10.4 ng/mL
- percentage of late apoptotic cells [2]: 5.1%
- inhibition of BCRP [3]: inhibits
- inhibition of OATP1B1 [4]: inhibits
- inhibition of OCT1 [5]: inhibits
- inhibition of OCT2 [6]: inhibits
- inhibition of OAT3 [7]: inhibits
- inhibition of MATE1 [8]: inhibits
- inhibition of MATE2K [9]: inhibits
